Measurements from ChEMBL document CHEMBL3868615, “Decahydrobenzoquinolin-5-one sigma receptor ligands: Divergent development of both sigma 1 and sigma 2 receptor selective examples” (Bioorg Med Chem Lett, 2016).

What was measured:
PC-12 [1] = test: Selectivity ratio of Ki for sigma2 receptor in rat PC12 cells to Ki for guinea pig sigma1 receptor; assay type: cell-based
[2] = target: Sigma non-opioid intracellular receptor 1 (Cavia porcellus, UniProt Q60492); test: Displacement of [3H]pentazocine from guinea pig sigma1 receptor measured after 90 mins by microbeta scintillation counting method
[3] = Displacement of [3H]DTG from sigma2 receptor in rat PC12 cells measured after 90 mins by microbeta scintillation counting method; assay type: cell-based; details: pc-12
Mu-type opioid receptor = Mu-type opioid receptor (Homo sapiens, UniProt P35372); test: Displacement of [3H]DAMGO from human MOR expressed in HEK cells after 90 mins by microbeta scintillation counting method; assay type: cell-based, HEK293
[4] = target: Kappa-type opioid receptor (Homo sapiens, UniProt P41145); test: Displacement of [3H]U69593 from KOR (unknown origin) expressed in HEKT cells measured after 90 mins by microbeta scintillation counting method; assay type: cell-based
[5] = target: Delta-type opioid receptor (Homo sapiens, UniProt P41143); test: Displacement of [3H]DADLE from human DOR expressed in HEK cells measured after 90 mins by microbeta scintillation counting method; assay type: cell-based, HEK293
PC-12 [6] = test: Selectivity ratio of Ki for guinea pig sigma1 receptor to Ki for sigma2 receptor in rat PC12 cells; assay type: cell-based
[7] = target: T1, 5-hydroxytryptamine receptor 1A (Homo sapiens, UniProt P08908); test: Displacement of [3H]Way100635 from human 5-HT1A receptor expressed in CHO cells measured after 90 mins by microbeta scintillation counting method; assay type: cell-based
T1 sequence (P08908 whole entry): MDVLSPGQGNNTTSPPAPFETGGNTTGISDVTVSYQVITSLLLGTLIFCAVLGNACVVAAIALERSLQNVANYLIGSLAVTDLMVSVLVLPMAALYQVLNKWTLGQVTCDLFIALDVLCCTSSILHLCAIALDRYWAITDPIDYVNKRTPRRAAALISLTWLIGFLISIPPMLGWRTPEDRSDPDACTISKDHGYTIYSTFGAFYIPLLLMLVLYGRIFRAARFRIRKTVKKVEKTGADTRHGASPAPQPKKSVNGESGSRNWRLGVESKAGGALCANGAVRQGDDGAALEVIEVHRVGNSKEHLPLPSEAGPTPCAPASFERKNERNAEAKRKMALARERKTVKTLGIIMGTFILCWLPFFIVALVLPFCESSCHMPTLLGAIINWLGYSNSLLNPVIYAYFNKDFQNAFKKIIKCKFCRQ

Chain of Sigma non-opioid intracellular receptor 1 (Q60492 whole entry): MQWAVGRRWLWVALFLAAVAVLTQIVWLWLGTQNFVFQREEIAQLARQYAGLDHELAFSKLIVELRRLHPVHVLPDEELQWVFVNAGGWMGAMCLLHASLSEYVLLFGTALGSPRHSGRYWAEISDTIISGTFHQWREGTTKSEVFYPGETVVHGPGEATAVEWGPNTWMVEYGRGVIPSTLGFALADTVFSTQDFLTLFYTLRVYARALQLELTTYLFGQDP
Chain of Mu-type opioid receptor (P35372 whole entry): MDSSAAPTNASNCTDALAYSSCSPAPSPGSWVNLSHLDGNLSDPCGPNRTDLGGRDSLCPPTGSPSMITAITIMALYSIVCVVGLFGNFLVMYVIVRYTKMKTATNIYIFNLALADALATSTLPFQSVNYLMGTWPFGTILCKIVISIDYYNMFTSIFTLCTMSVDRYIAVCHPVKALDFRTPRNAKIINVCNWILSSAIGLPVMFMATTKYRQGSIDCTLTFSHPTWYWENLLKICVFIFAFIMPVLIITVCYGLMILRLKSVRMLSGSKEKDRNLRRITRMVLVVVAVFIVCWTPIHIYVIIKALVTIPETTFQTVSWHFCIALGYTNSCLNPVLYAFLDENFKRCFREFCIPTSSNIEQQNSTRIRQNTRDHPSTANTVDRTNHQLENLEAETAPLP
Chain of Kappa-type opioid receptor (P41145 whole entry): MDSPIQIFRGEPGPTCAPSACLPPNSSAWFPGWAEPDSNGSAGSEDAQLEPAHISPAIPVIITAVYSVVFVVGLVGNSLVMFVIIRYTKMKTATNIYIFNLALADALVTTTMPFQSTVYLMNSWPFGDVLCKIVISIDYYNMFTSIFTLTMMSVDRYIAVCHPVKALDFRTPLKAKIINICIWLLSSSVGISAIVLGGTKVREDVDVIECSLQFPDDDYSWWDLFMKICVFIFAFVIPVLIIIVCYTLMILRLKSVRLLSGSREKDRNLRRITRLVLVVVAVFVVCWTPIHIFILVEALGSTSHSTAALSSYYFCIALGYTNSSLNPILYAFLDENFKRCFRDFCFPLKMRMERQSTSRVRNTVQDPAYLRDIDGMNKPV
Chain of Delta-type opioid receptor (P41143 whole entry): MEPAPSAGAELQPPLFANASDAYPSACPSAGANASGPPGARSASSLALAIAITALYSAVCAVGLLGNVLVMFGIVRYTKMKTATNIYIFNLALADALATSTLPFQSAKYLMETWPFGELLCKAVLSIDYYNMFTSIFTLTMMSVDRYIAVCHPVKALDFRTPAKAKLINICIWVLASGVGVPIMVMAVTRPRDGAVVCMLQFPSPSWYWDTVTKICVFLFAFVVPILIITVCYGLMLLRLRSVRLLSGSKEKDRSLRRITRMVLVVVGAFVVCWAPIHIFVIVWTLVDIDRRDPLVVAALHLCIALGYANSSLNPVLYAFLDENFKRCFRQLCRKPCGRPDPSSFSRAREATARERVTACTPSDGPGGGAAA

Row | Structure (SMILES) | Ratio Ki (PC-12 [1]) | Ki [2] [nM] | Ki [3] [nM] | Ki (Mu-type opioid receptor) [nM] | Ki [4] [nM] | Ki [5] [nM] | Ratio Ki (PC-12 [6]) | Ki [7] [nM]
1 | CC[C@H]1C(=O)C[C@@H]2CCN(Cc3cccs3)[C@@H]3CCC[C@H]1[C@@H]23 | 31.2 | 6 | 187 | 892 | 1470 | > 10000 |  | 
2 | CCCN1CC[C@@H]2CC(=O)C[C@H]3CCC[C@H]1[C@H]32 | 1.9 | 345 | 663 | > 10000 | > 10000 | > 10000 |  | 
3 | CC[C@H]1C(=O)C[C@@H]2CCN(CC3CCCCC3)[C@@H]3CCC[C@H]1[C@@H]23 | 0.8 | 4 | 3 | 1900 | 278 | > 10000 |  | 
4 | O=C1C[C@@H]2CCN(Cc3nccs3)[C@@H]3CCC[C@@H]([C@@H]23)[C@H]1Cc1ccccc1 | 90 | 3 | 270 | > 10000 | 1400 | > 10000 |  | 
5 | CCCN1CC[C@H]2c3cc4ccccc4nc3[C@H](CC)[C@H]3CCC[C@@H]1[C@@H]32 | 0.4 | 70 | 27 | > 10000 | 493 | > 10000 | 2.6 | 
6 | CCCN1CC[C@H]2CC(=O)[C@H](Cc3ccc(OC)cc3)[C@H]3CCC[C@@H]1[C@H]23 | 3.2 | 9 | 29 | > 10000 | > 10000 | > 10000 |  | 
7 | O=C1C[C@@H]2CCN(CC3CCCCC3)[C@@H]3CCC[C@@H]([C@@H]23)[C@H]1Cc1ccccc1 | 0.7 | 3 | 2 | > 10000 | 1230 | > 10000 |  | 
8 | COc1ccc(C[C@H]2C(=O)C[C@@H]3CCN(CCC(C)C)[C@@H]4CCC[C@H]2[C@@H]34)cc1 | 2 | 3 | 6 | > 10000 | > 10000 | > 10000 |  | 
9 | CCCN1CC[C@H]2c3cc4cc(Cl)ccc4nc3[C@H](CC)[C@H]3CCC[C@@H]1[C@@H]32 | 0.08 | 209 | 17 | > 10000 | 372 | > 10000 | 12.3 | 
10 | CCCN1CC[C@H]2C[C@@H](O)[C@H](CC)[C@H]3CCC[C@@H]1[C@H]23 | 3.3 | 55 | 183 | > 10000 | > 10000 | > 10000 |  | 
11 | CC[C@H]1C(=O)C[C@@H]2CCN(C(=O)NCc3ccc(Cl)cc3)[C@@H]3CCC[C@H]1[C@@H]23 | 2.6 | 722 | 1910 | > 10000 | > 10000 | > 10000 |  | 
12 | O=C1C[C@@H]2CCN(Cc3cccs3)[C@@H]3CCC[C@@H]([C@@H]23)[C@H]1Cc1ccccc1 | 14.7 | 3 | 44 | > 10000 | 638 | > 10000 |  | 
13 | COc1ccc(C[C@H]2C(=O)C[C@@H]3CCN(CC4CCCCC4)[C@@H]4CCC[C@H]2[C@@H]34)cc1 | 0.3 | 10 | 3 | > 10000 | 1600 | > 10000 | 3 | 
14 | CCCN1CC[C@H]2c3cc4cccc(OC)c4nc3[C@H](CC)[C@H]3CCC[C@@H]1[C@@H]32 | 0.4 | 171 | 63 | > 10000 | 1690 | > 10000 | 2.7 | 
15 | O=C(CCCN1CCC(O)(c2ccc(Cl)cc2)CC1)c1ccc(F)cc1 [HALOPERIDOL] |  |  | 14 |  |  |  |  | 
16 | CC[C@H]1C(=O)C[C@@H]2CCN(S(=O)(=O)c3ccc(C)cc3)[C@@H]3CCC[C@H]1[C@@H]23 |  | > 10000 | > 10000 | > 10000 | > 10000 | > 10000 |  | 
17 | CC[C@H]1c2nc3ccccc3cc2[C@@H]2CCN(C)[C@@H]3CCC[C@H]1[C@H]32 | 0.5 | 189 | 86 | > 10000 | 3490 | > 10000 | 2.2 | 
18 | COCCN1CC[C@H]2CC(=O)[C@H](Cc3ccccc3)[C@H]3CCC[C@@H]1[C@H]23 | 17.5 | 2 | 35 | > 10000 | > 10000 | > 10000 |  | 
19 | CCCN1CC[C@H]2CC(=O)[C@H](Cc3ccccc3)[C@H]3CCC[C@@H]1[C@H]23 | 5 | 1 | 5 | > 10000 | 3620 | > 10000 |  | 
20 | CC(C)CCN1CC[C@H]2CC(=O)[C@H](Cc3ccccc3)[C@H]3CCC[C@@H]1[C@H]23 | 1.5 | 2 | 3 | > 10000 | 711 | > 10000 |  | 
21 | CCCCCCCN1CC[C@H]2CC(=O)[C@H](CC)[C@H]3CCC[C@@H]1[C@H]23 | 4 | 2 | 8 | 632 | > 10000 | > 10000 |  | 
22 | CCCN1CC[C@H]2CC3=Nc4ccccc4[C@]3(CC)[C@H]3CCC[C@@H]1[C@H]23 | 10.9 | 7 | 76 | > 10000 | > 10000 | > 10000 |  | 
23 | CCCN1CC[C@H]2CC(=O)C[C@H]3CCC[C@@H]1[C@@H]32 | 1 | 126 | 127 | > 10000 | > 10000 | > 10000 |  | 
24 | CCCN1CC[C@H]2CC(=O)[C@H](CC)[C@H]3CCC[C@@H]1[C@H]23 | 20.9 | 11 to 12 | 230 to 401 | > 10000 | > 10000 | > 10000 |  | 4500
25 | CC[C@H]1C(=O)C[C@@H]2CCN(Cc3nccs3)[C@@H]3CCC[C@H]1[C@@H]23 | 1.9 | 407 | 760 | > 10000 | > 10000 | > 10000 |  | 
26 | CC[C@H]1C(=O)C[C@@H]2CCN(CCOC)[C@@H]3CCC[C@H]1[C@@H]23 | 16.3 | 26 | 423 | > 10000 | > 10000 | > 10000 |  | 
27 | COc1ccc(C[C@H]2C(=O)C[C@@H]3CCN(C)[C@@H]4CCC[C@H]2[C@@H]34)cc1 | 50.2 | 5 | 251 | > 10000 | > 10000 | > 10000 |  | 
28 | CC[C@H]1C(=O)C[C@@H]2CCN(CCC(C)C)[C@@H]3CCC[C@H]1[C@@H]23 | 1.5 | 4 | 6 | > 10000 | 1280 | > 10000 |  | 
29 | CC[C@H]1C(=O)C[C@@H]2CCN(C)[C@@H]3CCC[C@H]1[C@@H]23 | > 43.3 | 137 | > 5930 | > 10000 | > 10000 | > 10000 |  | 
